Laboratory results reported in patent US20230357722A1, “METHODS FOR IDENTIFYING MODULATORS OF NATURAL KILLER CELL INTERACTIONS” (The Johns Hopkins University, priority 2020, published 2023).

Columns and labels:
Assay type in all cases: cell-based, mouse
TIGIT = test: RT-qPCR of TIGIT in teNK cells treated with DNMT inhibitors; conditions: teNK cells pretreated with DNMT inhibitor; FIG. 10F
Source text: (§1) Natural killer cell isolation. Primary splenocytes were isolated by mechanical dissociation from spleens of wild-type FVB/n, MMTV-PyMT, or C3(1)-Tag mice, or from the tumors of MMTV-PyMT mice. NK cells isolated from WT FVB/n mice are defined as healthy NK (hNK) cells and those isolated from tumor bearing mice are defined as tumor-exposed NK (teNK) cells. NK cells isolated from MMTV-PyMT tumors are defined as tumor-infiltrating NK cells. The NK cells were purified from isolated splenocytes using EasySep Mouse NK Cell Isolation Kit per the manufacturer's protocol (#19855; Stemcell Technologies). The isolated cells were then positively selected by FACS by gating on CD49b+/CD3− cells and CD45+/CD49b+/CD3− for NK cells isolated from tumors. NK cells were cultured in media at 37° C. containing 200 U/ml recombinant mouse IL-2 (#402-ML-100, R&D Systems), 5 ng/ml recombinant mouse IL-15 (#447-ML-010, R&D Systems) or 5 ng/ml recombinant mouse IL-I5:IL-15R complex (#14-8152-62, Thermo Fisher) for 16 h before use in assays. […]
(§2) RNA Extraction and Quantitative PCR. […] Quantitative PCR was conducted using the SsoAdvanced Universal SYBR Green Supermix (BioRad #1725271) with 500 pg cDNA and 500 nM primers per reaction. […] Target gene expression values were normalized to GAPDH expression and fold change was calculated as 2-ΔΔCt. […]

KLRG1 = test: RT-qPCR of KLRG1 in teNK cells treated with DNMT inhibitors; conditions: teNK cells pretreated with DNMT inhibitor; FIG. 10F
Source text: as §1, §2

[1] = test system: tumor-exposed NK cell-MMTV-PyMT tumor cluster co-culture; test: teNK cell-MMTV-PyMT tumor cluster co-culture colony formation assay; conditions: teNK cells pretreated with DNMT inhibitor at 1 μM for 24 hours before co-culture; FIG. 5C
Source text: The capacity of candidate immunotherapies to reverse the effect of teNK cells on colony formation was investigated. Anti-PD-1 therapy has been reported to restore the function of anergic NK cells (Hsu J, et al. J Clin Invest. 2018; 128(10):4654-68). […] Targeted receptors were next identified in the RNA expression analysis, specifically TIGIT and KLRG1. TIGIT is an emerging immune checkpoint on NK cells and T cells and anti-TIGIT therapies are in clinical trials (Zhang Q, et al. Blockade of the checkpoint receptor TIGIT prevents NK cell exhaustion and elicits potent anti-tumor immunity. Nat Immunol. 2018; 19(7):723-32). KLRG1, a marker of senescent NK cells and T cells and a recently reported inhibitor of NK cell function (Muller-Durovic B, et al. J Immunol. 2016; 197(7):2891-9), was highly expressed by teNK cells. […] The broad gene expression differences between hNK and teNK cells provided the motivation to identify epigenetic regulators of NK cell state. […] Experiments were then carried out seeking to validate the functional significance of these findings in the co-culture models. […] It was assessed whether the combination of FDA approved DNA methyltransferase inhibitors and anti-TIGIT or anti-KLRG1 would prevent colonies from being formed in co-culture. […]

Nc1ncn([C@@H]2O[C@H](CO)[C@@H](O)[C@H]2O)c(=O)n1 [azacitidine]
gene expression of TIGIT by qPCR (TIGIT): reduced gene expression of TIGIT | gene expression of KLRG1 by qPCR (KLRG1): reduced gene expression of TIGIT and KLRG1 | colony formation (normalized colony count) [1]: neutralized the effect of teNK cells in co-culture
